32 molecules from patent EP0393604B1, “6,11-Dihydro-5H-pyrido(2,3-b)(1,5,)benzodiazepin-5-ones and thiones and their use in the prevention or treatment of AIDS” (priority 1989, dated 1990) can be followed below.

Molecules are shown by their SMILES.

One experiment addresses T1, HIV-1 RT (Human immunodeficiency virus type 1 group M subtype B, UniProt P03367).
T1 construct: Reverse transcriptase enzyme from the LAV strain of Human Immunodeficiency Virus (HIV-1) (1) was isolated from the bacterial strain JM109; made in house; host or cells: E. coli JM109, clone pBRTprt1+ in vector pIBI21, lac promoter, IPTG induction
As to the kind of experiment: Reverse Transcriptase (RT) Assay: inhibition of RNA-dependent DNA polymerase activity. The settings on record: 10µg/ml; Table I, compounds of formula I; read-out: RT Inhibition % @ 10µg/ml. The experiment is classed as biochemical. The text has this:
Utilizing the Reverse Transcriptase (RT) Assay descibed below, compounds can be tested for their ability to inhibit the RNA-dependent DNA polymerase activity of HIV-1 RT. Certain specific compounds of formula I described in the Examples which appear below, were so tested. The above-described compounds of formula IA were also so tested.
Among the enzymes for which Human Immunodeficiency Virus (HIV-1) encodes is a reverse transcriptase (1), so-named because it transcribes a DNA copy from an RNA template. This activity can be quantitatively measured in a cell-free enzyme assay which has been previously described (2), and is based upon the observation that reverse transcriptase is able to use a synthetic template [poly r(C) primed with oligo d(G)] to transcribe a radio-labelled, acid-precipitable DNA strand utilizing ^3H-dGTP as a substrate.
Reverse transcriptase enzyme from the LAV strain of Human Immunodeficiency Virus (HIV-1) (1) was isolated from the bacterial strain JM109 (3) expressing the DNA clone pBRTprt1+ (2) which is under the control of the lac promoter in the expression vector pIBI21 (4). An overnight culture grown in 2XYT medium (37°C, 225 rpm) (5) supplemented with 100 µg/ml ampicillin for positive selection is inoculated at a 1:40 dilution into M9 medium supplemented with 10µg/ml thiamine, 0.5% casamino acids, and 50 µg/ml ampicillin (5). The culture is incubated (37°C, 225 rpm) until it reaches an OD540 of 0.3-0.4. At that time the repressor inhibitor IPTG (isopropyl b-D-thiogalactopyranoside) is added to 0.5mM and the mixture is incubated for 2 additional hours. Bacteria are pelleted, resuspended in a 50mM Tris, 0.6mM EDTA, 0.375M NaCl buffer and digested by the addition of lysozyme (1mg/ml) for 30 minutes on ice. The cells are lysed by the addition of 0.2% NP-40 and brought to 1M NaCl.
After removal of the insoluble debris by centrifugation, the protein is precipitated by the addition of 3 volumes of water-saturated ammonium sulfate. The enzyme is pelleted, resuspended in RT buffer (50mM Tris pH 7.5. 1mM EDTA, 5mM DTT, 0.1% NP-40, 0.1M NaCl, and 50% glycerol), and stored at -70°C for further use.
The 2X concentrated stock reaction mixture is aliquoted and stored at -20°C. The mixture is stable and thawed for use in each assay. This enzyme assay has been adapted to a 96 well microtiter plate system, and has been previously described (6). Tris buffer (50 mM, pH 7.4), vehicle (solvent diluted to match the compound dilution), or compounds in vehicle are dispensed into 96-well microtiter plates (10µl/well: 3 wells/compound). The HIV-1 RT enzyme is thawed and diluted in 50mM Tris pH 7.4 so that fifteen µl of diluted enzyme contain 0.001 Unit (one unit is that amount of enzyme to transform 1 micromole of substrate per minute at 25°C) and 15µl are dispensed per well. Twenty µl of 0.12 - 0.5M EDTA are added to the first three wells of the microtiter plate. EDTA chelates the Mg^++ present and prevents reverse transcription. This group serves as background polymerization which is subtracted from all other groups. Twenty-five ul of the 2X reaction mixture are added to all wells and the assay is allowed to incubate at room temperature for 60 minutes. The assay is terminated by precipitating the DNA in each well with 50µl of trichloracetic acid (TCA) (10% w/v) in sodium pyrophosphate (1% w/v). The microtiter plate is incubated for 15 minutes at 4°C and the precipitate is fixed onto #30 glass fiber paper (Schleicher & Schuell) using a Skatron semi-automatic harvester. The filters are then washed with additional TCA (5%) containing sodium pyrophosphate (1%), rinsed with aqueous ethanol (70%), dried, and transferred to scintillation vials (6). Each vial receives 2 mls of scintillation cocktail and is counted in a Beckman beta counter. […]
Turning to `CN1c2ccccc2NC(=O)c2cccnc21` [Example 1, 6,11-Dihydro-11-methyl-5H-pyrido[2,3-b][1,5]benzodiazepin-5-one], the inhibition at 10 µg/mL was 37%.
Regarding `CCCN1c2ccccc2N(C)C(=O)c2cccnc21` [Example 3, 6,11-Dihydro-6-methyl-11-propyl-5H-pyrido[2,3-b][1,5]benzodiazepin-5-one], the inhibition at 10 µg/mL stood at 92%.
The same measure, in the same setting: for `CCCCN1c2ccccc2N(C)C(=O)c2cccnc21` [Example 6, 11-Butyl-6,11-dihydro-6-methyl-5H-pyrido[2,3-b][1,5]-benzodiazepin-5-one] the value was 46%; for `CN1C(=O)c2cccnc2N(CCO)c2ccccc21` [Example 7, 6,11-Dihydro-11-(2-hydroxyethyl)-6-methyl-5H-pyrido[2,3-b][1,5]benzodiazepin-5-one], 50%.
With `CN1C(=O)c2cccnc2N(C)c2ccccc21` [Example 10, 6,11-Dihydro-6,11-dimethyl-5H-pyrido[2,3-b][1,5]benzodiazepin-5-one], the inhibition at 10 µg/mL is 68%.
The same measure, in the same setting: for `CCN1C(=O)c2cccnc2N(C)c2ccccc21` [Example 11, 6,11-Dihydro-6-ethyl-11-methyl-5H-pyrido[2,3-b][1,5]benzodiazepin-5-one] the value was 88%.
Consider `CCCN1C(=O)c2cccnc2N(C)c2ccccc21` [Example 12, 6,11-Dihydro-11-methyl-6-propyl-5H-pyrido[2,3-b][1,5]benzodiazepin-5-one], for which the inhibition at 10 µg/mL was found to be 89%.
In the case of `CC(C)N1C(=O)c2cccnc2N(C)c2ccccc21` [Example 13, 6,11-Dihydro-11-methyl-6-methylethyl-5H-pyrido[2,3-b][1,5]benzodiazepin-5-one], the inhibition at 10 µg/mL is 91%.
Same read-out and setting: for `CCCCN1C(=O)c2cccnc2N(C)c2ccccc21` [Example 14, 6-Butyl-6,11-dihydro-11-methyl-5H-pyrido[2,3-b][1,5] benzodiazepin-5-one] the value was 75%; for `Cc1cc(C)c2c(n1)N(C)c1cc(C)c(C)cc1N(C)C2=O` [Example 16, 6,11-Dihydro-2,4,6,8,9,11-hexamethyl-5H-pyrido[2,3-b][1,5]benzodiazepin-5-one], 44%; for `CC(=O)N1c2ccccc2N(C)C(=O)c2cccnc21` [Example 18, 11-Acetyl-6,11-dihydro-6-methyl-5H-pyrido[2,3-b][1,5]benzodiazepin-5-one], 29%.
Turning to `CSCN1C(=O)c2cccnc2N(CSC)c2cc(Cl)ccc21` [Example 20, 6,11-bis-(methylthiomethyl)-9-chloro-6,11-dihydro-5H-pyrido-[2,3-b][1,5]benzodiazepin-5-one], the inhibition at 10 µg/mL was 69%.
Same read-out and setting: for `CCN1C(=O)c2cccnc2N(CC)c2ccccc21` [Example 21, 6,11-Diethyl-6,11-dihydro-5H-pyrido[2,3-b][1,5]benzodiazepin-5-one] the value was 96%; for `CCN1c2ccccc2NC(=O)c2cccnc21` [Example 23, 6,11-Dihydro-11-ethyl-5H-pyrido[2,3-b][1,5]benzodiazepin-5-one], 100%.
Regarding `CN1C(=O)c2cccnc2N(Cc2ccccc2)c2ccccc21` [Example 25, 6,11-Dihydro-11-benzyl-6-methyl-5H-pyrido[2,3-b][1,5]benzodiazepin-5-one], the inhibition at 10 µg/mL came to 73%.
For the molecule `CN1C(=O)c2cccnc2N(CC(=O)OC(C)(C)C)c2ccccc21` [Example 26, 6,11-Dihydro-11-(t-butoxycarbonyl)methyl-6-methyl-5H-pyrido[2,3-b][1,5] benzodiazepin-5-one], the inhibition at 10 µg/mL came out at 81%.
Same read-out and setting: for `CCOC(=O)CN1c2ccccc2N(C)C(=O)c2cccnc21` [Example 27, 6,11-Dihydro-11-(ethoxycarbonyl)methyl-6-methyl-5H-pyrido[2,3-b][1,5] benzodiazepin-5-one] the value was 64%.
Regarding `Cc1cc2c(cc1C)N(C)C(=O)c1cccnc1N2` [Example 28, 6,11-Dihydro-6,8,9-trimethyl-5H-pyrido[2,3-b][1,5]benzodiazepin-5-one], the inhibition at 10 µg/mL came out at 65%.
Turning to `CCN1c2cc(C)c(C)cc2N(C)C(=O)c2cccnc21` [Example 29, 6,11-Dihydro-11-ethyl-6,8,9-trimethyl-5H-pyrido[2,3-b][1,5]benzodiazepin-5-one], the inhibition at 10 µg/mL was 99%.
As to `CCN1c2ccc(C(=O)OC)cc2N(C)C(=O)c2cccnc21` [Example 30, 6,11-Dihydro-8-methoxycarbonyl-11-ethyl-6-methyl-5H-pyrido[2,3-b][1,5] benzodiazepin-5-one], the inhibition at 10 µg/mL is 94%.
The same measure, in the same setting: for `CCN1C(=O)c2cccnc2Nc2cccc(C)c21` [Example 31, 6,11-Dihydro-6-ethyl-7-methyl-5H-pyrido[2,3-b][1,5]benzodiazepin-5-one] the value was 92%; for `Cc1cccc2c1NC(=O)c1cccnc1N2` [Example 32, 6,11-Dihydro-7-methyl-5H-pyrido[2,3-b][1,5]benzodiazepin-5-one], 51%.
The same measure, in the same setting: for `CCN1c2ccccc2N(CF)C(=O)c2cccnc21` [Example 34, 6,11-Dihydro-11-ethyl-6-fluoromethyl-5H-pyrido-[2,3-b][1,5]benzodiazepin-5-one] the value was 85%.

Still in this experiment, the particulars now being: 10µg/ml; Table II, known compounds of formula IA.
With `Cc1cc2c(cc1C)N(C)C(=O)c1cccnc1N2` [Formula IA e, 6,8,9-trimethyl-6,11-dihydro-5H-pyrido[2,3-b][1,5]benzodiazepin-5-one], the “RT Inhibition % @ 10µg/ml” value is recorded as 65%.

Still in this experiment, the particulars now being: 10µg/ml; Table II, known compounds of formula IA; read-out: RT Inhibition % @ 10µg/ml.
In the case of `Cc1ccc2c(c1)N(C)C(=O)c1c(C)cc(C)nc1N2` [Formula IA a, 2,4,6,8-tetramethyl-6,11-dihydro-5H-pyrido[2,3-b][1,5]benzodiazepin-5-one], the inhibition at 10 µg/mL is 58%.
Take `CN1C(=O)c2cccnc2Nc2ccccc21` [Formula IA b, 6-methyl-6,11-dihydro-5H-pyrido[2,3-b][1,5]benzodiazepin-5-one]: the inhibition at 10 µg/mL was determined as 43%.
As for `O=C1Nc2ccccc2Nc2ncccc21` [Formula IA c, 6,11-dihydro-5H-pyrido[2,3-b][1,5]benzodiazepin-5-one], the inhibition at 10 µg/mL stood at 22%.
Take `CCN1C(=O)c2cccnc2Nc2ccccc21` [Formula IA d, 6-ethy-6,11-dihydro-5H-pyrido[2,3-b][1,5]benzodiazepin-5-one]: the inhibition at 10 µg/mL was 69%.
In the case of `CCN1C(=O)c2cccnc2Nc2cc(C)c(C)cc21` [Formula IA f, 6-ethyl-8,9-dimethyl-6,11-dihydro-5H-pyrido[2,3-b][1,5]benzodiazepin-5-one], the inhibition at 10 µg/mL was determined as 95%.
For `CC(C)CN1C(=O)c2cccnc2Nc2ccccc21` [Formula IA g, 6-isobutyl-6,11-dihydro-5H-pyrido[2,3-b][1,5]benzodiazepin-5-one], the inhibition at 10 µg/mL was 33%.

Staying with this experiment, now noted: read-out: RT Inhibition % @ 10µg/ml.
In the case of `CCN1c2ccccc2NC(=S)c2cccnc21` [Example 24, 6,11-Dihydro-11-ethyl-5H-pyrido[2,3-b][1,5]benzodiazepin-5-thione], the inhibition at 10 µg/mL was found to be 100%.
Still for that read-out and setting: for `CN1C(=O)c2cccnc2N(CCF)c2ccccc21` [Example 33, 6,11-Dihydro-11-(2-fluoroethyl)-6-methyl-5H-pyrido[2,3-6][1,5]benzodiazepin-5-one] the value was 97%.
